The values that follow come from US20060100431A1, “Biologically active compounds” (Amura Therapeutics Limited, priority 2002, published 2006).

SMILES strings stand for the structures. Where two headings read alike, the source gives them in different places.

Holding throughout (format): biochemical
The target in assay [1] is T1, human cathepsin B (Homo sapiens, UniProt P07858).
T1 construct: purchased CN Biosciences
The assay can be described thus: Cathepsin B peptidase activity assay (Ki). The method, then: Unless otherwise stated, all general chemicals and biochemicals were purchased from either the Sigma Chemical Company, Poole, Dorset, U.K or from Fisher Scientific UK, Loughborough, Leicestershire, U.K. Absorbance assays were carried out in flat-bottomed 96-well plates (Spectra; Greiner Bio-One Ltd., Stonehouse, Gloucestershire, U.K.) using a SpectraMax PLUS384 plate reader (Molecular Devices, Crawley, U.K.). […] Fluorescence assays were monitored using a SpectraMax Gemini fluorescence plate reader (Molecular Devices). For substrates employing either a 7-amino-4-methylcoumarin (AMC) or a 7-amino-4-trifluoromethylcoumarin (AFC) fluorophore, assays were monitored at an excitation wavelength of 365 nm and an emission wavelength of 450 nm and the fluorescence plate reader calibrated with AMC. For substrates employing a 3-amino-benzoyl (Abz) fluorophore, assays were monitored at an excitation wavelength of 310 nm and an emission wavelength of 445 nm; the fluorescence plate reader calibrated with 3-amino-benzamide (Fluka). Unless otherwise indicated, all the peptidase substrates were purchased from Bachem UK, St Helens, Merseyside, UK. […] Hydroxyethylpiperazine ethanesulfonate (HEPES), tris-hydroxylmethyl aminomethane (tris) base, bis-tris-propane and all the biological detergents (e.g. CHAPS, zwittergents, etc.) were purchased from CN Biosciences UK, Beeston, Nottinghamshire, U.K. Glycerol was purchased from Amersham Pharmacia Biotech, Little Chalfont, Buckinghamshire, U.K. Stock solutions of substrate or inhibitor were made up to 10 mM in 100% dimethylsulfoxide (DMSO) (Rathburns, Glasgow, U.K.) and diluted as appropriately required. In all cases the DMSO concentration in the assays was maintained at less than 1% (vol./vol.).
Enzyme was added as required to initiate the reaction and the activity, as judged by the change in fluorescence upon conversion of substrate to product, was monitored over time. All assays were carried out at 25±1° C.
Bovine cathepsin S, human cathepsin L, human cathepsin H and human cathepsin B were obtained from CN Biosciences. Recombinant human cathepsin S, human cathepsin K and human cathepsin X were obtained from Dr. Boris Turk (Josef Stefan Institute, Ljubljana, Slovenia). Unless otherwise stated, all peptidase activity assays were carried out in 10 mM bis-tris-propane (BTP), pH 6.5 containing 1 mM EDTA, 5 mM 2-mercaptoethanol and 1 mM CaCl2.
The apparent inhibition constant (Ki) for each compound was determined on the basis that inhibition was reversible and occurred by a pure-competitive mechanism. […] [formula]
[formula] Ki^app=Ki(1+[So]/KM^app) (4)
Curves were fitted by non-linear regression analysis (Prism) using a fixed value for the enzyme concentration.

The target of assay [2] is Wild-type cruzipain (Trypanosoma cruzi, UniProt P25779). Kind of assay: Trypanosoma cruzi cruzipain peptidase activity assay (Ki). As to conditions: read-out: Ki, inhibitors of cruzain and cruzipains. The method, boiled down:
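Native cruzipain from T. cruzi Dm28 epimastigotes, 2.5 nM, in 100 mM sodium phosphate pH 6.75 with 1 mM EDTA and 10 mM L-cysteine, 25 °C, DMSO <1%. Rates taken from continuous fluorogenic substrate read; Ki by regression assuming reversible pure-competitive inhibition.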

Assay [3] has as its target T2, CPB2.8ΔCTE (Leishmania mexicana, UniProt P36400).
T2 construct: Wild-type recombinant CPB without the C-terminal extention (i.e. CPB2.8ΔCTE); Dr. Jeremy Mottram (Wellcome Centre for Molecular Parasitology, University of Glasgow)
The assay can be described thus: Leishmania mexicana cysteine protease B (CPB) peptidase activity assay (Ki). As to conditions: Ki, inhibitors of Leismania mexicana CPB protease. The method, boiled down: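 Recombinant CPB2.8ΔCTE (0.25 nM) was assayed in 100 mM sodium acetate pH 5.5 with 1 mM EDTA, 200 mM NaCl and 10 mM DTT at 25 °C, DMSO <1%, enzyme added to start. Rates were taken from continuous fluorescence slopes; apparent Ki was fitted assuming reversible, pure-competitive inhibition.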

[4] abbreviates: read-out: Ki, inhibitors of cathepsin B.

Chain of Wild-type cruzipain (P25779 whole entry): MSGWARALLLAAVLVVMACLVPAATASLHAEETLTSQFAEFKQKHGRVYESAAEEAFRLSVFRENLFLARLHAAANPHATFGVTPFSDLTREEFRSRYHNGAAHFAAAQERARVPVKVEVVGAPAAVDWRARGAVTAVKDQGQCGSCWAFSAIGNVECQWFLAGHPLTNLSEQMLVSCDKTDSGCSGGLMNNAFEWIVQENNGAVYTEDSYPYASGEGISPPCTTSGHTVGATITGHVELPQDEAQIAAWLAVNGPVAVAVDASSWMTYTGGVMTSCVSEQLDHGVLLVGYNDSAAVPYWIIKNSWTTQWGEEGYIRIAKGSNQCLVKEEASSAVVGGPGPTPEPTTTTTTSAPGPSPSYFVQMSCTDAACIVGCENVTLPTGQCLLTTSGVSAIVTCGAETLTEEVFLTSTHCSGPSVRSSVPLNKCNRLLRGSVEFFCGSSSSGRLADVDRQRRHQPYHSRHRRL
T2 sequence (P36400 126-343, stated change not applied): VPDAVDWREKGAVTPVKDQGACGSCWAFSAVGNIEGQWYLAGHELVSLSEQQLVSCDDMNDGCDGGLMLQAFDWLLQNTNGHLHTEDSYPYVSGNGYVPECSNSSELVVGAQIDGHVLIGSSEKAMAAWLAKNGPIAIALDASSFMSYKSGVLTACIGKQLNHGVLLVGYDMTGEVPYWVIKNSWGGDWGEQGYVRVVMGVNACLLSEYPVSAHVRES

`O=C(N[C@@H](Cc1ccc(O)cc1)C(=O)N1CC[C@@H]2[C@H]1C(=O)CN2C(=O)c1cccc([N+](=O)[O-])c1)c1cccc(Br)c1` [Example 305, (3aR,6aS)-3-Bromo-N-{(1S)-1-(4-hydroxy-benzyl)-2-[4-(3-nitro-benzoyl)-6-oxo-hexahydro-pyrrolo[3,2-b]pyrrole-1-yl]-2-oxo-ethyl}-benzamide]: the Ki in assay [1] (setting [4]) and in assay [2] was < 5 µM each time.

Consider `CCN(CC)c1ccc(C(=O)N[C@@H](CC(C)C)C(=O)N2CC[C@@H]3[C@H]2C(=O)CN3C(=O)c2cccc(S(C)(=O)=O)c2)cc1` [Example 60, (3aR,6aS)-4-Diethylamino-N-{(1S)-1-[4-(3-methanesulfonyl-benzoyl)-6-oxo-hexahydro-pyrrolo[3,2-b]pyrrole-1-carbonyl]-3-methyl-butyl}-benzamide], for which the Ki in assay [3], in assay [1] (setting [4]) and in assay [2] was < 5 µM throughout.

For `CC(C)C[C@H](NC(=O)c1ccc(N(C)C)cc1)C(=O)N1CC[C@@H]2[C@H]1C(=O)CN2C(=O)C1CCCCCC1` [Example 135, (3aR,6aS)-N-[(1S)-1-(4-Cycloheptanecarbonyl-6-oxo-hexahydro-pyrrolo[3,2-b]pyrrole-1-carbonyl)-3-methyl-butyl]-4-dimethylamino-benzamide], the Ki in assay [3], in assay [1] and in assay [2] was < 5 µM in each case.

Regarding `CC(C)C[C@H](NC(=O)c1ccc(C(C)(C)C)cc1)C(=O)N1CC[C@@H]2[C@H]1C(=O)CN2C(=O)c1csc(-c2ccccc2)n1` [Example 27, (3aR,6aS)-4-tert-Butyl-N-{(1S)-3-methyl-1-[6-oxo-4-(2-phenyl-thiazole-4-carbonyl)-hexahydro-pyrrolo[3,2-b]pyrrole-1-carbonyl]-butyl}-benzamide], the Ki in assay [3], in assay [1] (setting [4]) and in assay [2] was < 5 µM throughout.

As to `CC(C)C[C@H](NC(=O)c1ccc(N(C)C)cc1)C(=O)N1CC[C@@H]2[C@H]1C(=O)CN2C(=O)c1cccc([N+](=O)[O-])c1` [Example 46, (3aR,6aS)-4-Dimethylamino-N-{(1S)-3-methyl-1-[4-(3-nitro-benzoyl)-6-oxo-hexahydro-pyrrolo[3,2-b]pyrrole-1-carbonyl]-butyl}-benzamide], the Ki in assay [3], in assay [1] (setting [4]) and in assay [2] was < 5 µM each time.

For the compound `O=C(N[C@@H](Cc1ccc(O)cc1)C(=O)N1CC[C@@H]2[C@H]1C(=O)CN2C(=O)c1cccc2ccccc12)c1cccc2ccccc12` [Example 301, (3aR,6aS)-Naphthalene-1-carboxylic acid {(1S)-1-(4-hydroxy-benzyl)-2-[4-(naphthalene-1-carbonyl)-6-oxo-hexahydro-pyrrolo[3,2-b]pyrrol-1-yl]-2-oxo-ethyl}-amide], the inhibitory constant (Ki) in assay [1] (setting [4]) and in assay [2] was < 5 µM each time.

Regarding `O=C(N[C@@H](Cc1ccc(O)cc1)C(=O)N1CC[C@@H]2[C@H]1C(=O)CN2C(=O)C1CCCCC1)c1cccc(Br)c1` [Example 325, (3aR,6aS)-3-Bromo-N-[(1S)-2-(4-cyclohexanecarbonyl-6-oxo-hexahydro-pyrrolo[3,2-b]pyrrole-1-yl)-1-(4-hydroxy-benzyl)-2-oxo-ethyl]-benzamide], the Ki in assay [1] (setting [4]) and in assay [2] was < 5 µM each time.

With `CC(C)C[C@H](NC(=O)c1ccc([N+](=O)[O-])cc1)C(=O)N1CC[C@@H]2[C@H]1C(=O)CN2C(=O)c1cccc(S(C)(=O)=O)c1` [Example 58, (3aR,6aS)-N-{(1S)-1-[4-(3-Methanesulfonyl-benzoyl)-6-oxo-hexahydro-pyrrolo[3,2-b]pyrrole-1-carbonyl]-3-methyl-butyl}-4-nitro-benzamide], the Ki in assay [1] (setting [4]) and in assay [2] was < 5 µM each time.

Consider `CS(=O)(=O)c1cccc(C(=O)N2CC(=O)[C@@H]3[C@H]2CCN3C(=O)[C@H](Cc2ccc(O)cc2)NC(=O)c2cccc(Br)c2)c1` [Example 304, (3aR,6aS)-3-Bromo-N-{(1S)-1-(4-hydroxy-benzyl)-2-[4-(3-methanesulfonyl-benzoyl)-6-oxo-hexahydro-pyrrolo[3,2-b]pyrrole-1-yl]-2-oxo-ethyl}-benzamide], for which the inhibition constant (Ki) in assay [1] (setting [4]) and in assay [2] was < 5 µM in each case.

Take `O=C(N[C@@H](Cc1ccc(O)cc1)C(=O)N1CC[C@@H]2[C@H]1C(=O)CN2C(=O)c1ccccc1)c1nccc2ccccc12` [Example 299, (3aR,6aS)-Isoquinoline-1-carboxylic acid [(1S)-2-(4-benzoyl-6-oxo-hexahydro-pyrrolo[3,2-b]pyrrol-1-yl)-1-(4-hydroxy-benzyl)-2-oxo-ethyl]-amide]: the Ki in assay [1] (setting [4]) and in assay [2] was < 5 µM throughout.

As for `Cc1cccc(C(=O)N2CC(=O)[C@@H]3[C@H]2CCN3C(=O)[C@H](CC(C)C)NC(=O)c2ccc(N(C)C)cc2)c1` [Example 54, (3aR,6aS)-4-Dimethylamino-N-{(1S)-3-methyl-1-[4-(3-methyl-benzoyl)-6-oxo-hexahydro-pyrrolo[3,2-b]pyrrole-1-carbonyl]-butyl}-benzamide], the Ki in assay [1] (setting [4]) and in assay [2] was < 5 µM each time.

Consider `Cc1cccc(C(=O)N2CC(=O)[C@@H]3[C@H]2CCN3C(=O)[C@H](Cc2ccc(O)cc2)NC(=O)c2cccc(Br)c2)c1` [Example 327, (3aR,6aS)-3-Bromo-N-{(1S)-1-(4-hydroxy-benzyl)-2-[4-(3-methyl-benzoyl)-6-oxo-hexahydro-pyrrolo[3,2-b]pyrrol-1-yl]-2-oxo-ethyl}-benzamide], for which the Ki in assay [1] (setting [4]) and in assay [2] was < 5 µM throughout.

On to `O=C(N[C@@H](Cc1ccc(O)cc1)C(=O)N1CC[C@@H]2[C@H]1C(=O)CN2C(=O)c1ccc(O)cc1)c1cccc(Br)c1` [Example 309, (3aR,6aS)-3-Bromo-N-[(1S)-2-[4-(4-hydroxy-benzoyl)-6-oxo-hexa hydro-pyrrolo[3,2-b]pyrrole-1-yl]-1-(4-hydroxy-benzyl)-2-oxo-ethyl]-benzamide], for which the Ki in assay [1] (setting [4]) and in assay [2] was < 5 µM throughout.

`O=C(N[C@@H](Cc1ccc(O)cc1)C(=O)N1CC[C@@H]2[C@H]1C(=O)CN2C(=O)C12CC3CC(CC(C3)C1)C2)c1cccc(Br)c1` [Example 307, (3aR,6aS)-N-[(1S)-2-[4-(Adamantane-1-carbonyl)-6-oxo-hexa hydro-pyrrolo[3,2-b]pyrrole-1-yl)-1-(4-hydroxy-benzyl)-2-oxo-ethyl]-3-bromo-benzamide]: the Ki in assay [1] (setting [4]) and in assay [2] was < 5 µM each time.

As for `CC(C)C[C@H](NC(=O)c1ccc(N(C)C)cc1)C(=O)N1CC[C@@H]2[C@H]1C(=O)CN2C(=O)c1ccc(F)cc1` [Example 57, (3aR,6aS)-4-Dimethylamino-N-{(1S)-1-[4-(4-fluoro-benzoyl)-6-oxo-hexahydro-pyrrolo[3,2-b]pyrrole-1-carbonyl]-3-methyl-butyl}-benzamide], the Ki in assay [3] and in assay [1] (setting [4]) was < 5 µM throughout.

With `O=C(N[C@@H](Cc1ccc(O)cc1)C(=O)N1CC[C@@H]2[C@H]1C(=O)CN2C(=O)C12CC3CC(CC1C3)C2)c1cccc(Br)c1` [Example 308, (3aR,6aS)-3-Bromo-N-[(1S)-2-[4-(hexahydro-2,5-methano-pentalene-3a-carbonyl)-6-oxo-hexahydro-pyrrolo[3,2-b]pyrrole-1-yl]-1-(4-hydroxy-benzyl)-2-oxo-ethyl]-benzamide], the inhibition constant Ki in assay [1] (setting [4]) and in assay [2] was < 5 µM in each case.

In the case of `O=C(N[C@@H](Cc1ccc(O)cc1)C(=O)N1CC[C@@H]2[C@H]1C(=O)CN2C(=O)c1ccccc1)c1cc2ccccc2s1` [Example 300, (3aR,6aS)-Benzo[b]thiophene-2-carboxylic acid [(1S)-2-(4-benzoyl-6-oxo-hexahydro-pyrrolo[3,2-b]pyrrole-1-yl)-1-(4-hydroxy-benzyl)-2-oxo-ethyl]-amide], the Ki in assay [1] (setting [4]) and in assay [2] was < 5 µM in each case.

The Ki is the equilibrium dissociation constant of an inhibitor or competing ligand from its target.
